# Experimental data: patent US10280184B2, “Heterocyclic kinase inhibitors” (AbbVie Inc., priority 2014, dated 2019)
# Biological target: CSF-1R (Homo sapiens (Human), UniProt P07333)
# Test: In vitro CSF-1R kinase activity measured by trFRET
# Type: biochemical
# Details: recombinant human catalytic domain (aa 538-910), 0.1 mM ATP; read-out: CSF-1R enzyme IC50
# Experimental: In Vitro CSF-1R Kinase Activity Measured by Time-Resolved Fluorescence Resonance Energy Transfer (trFRET)
# The CSF-1R construct corresponds to recombinant human catalytic domain (aa 538-910), which was purchased from Invitrogen (cat #PV4092). CSF-1R was mixed with peptide substrate (biotin-TYR1, Sequence: Biotin-(Ahx)-GAEEEIYAAFFA-COOH, 4 μM final) at varying inhibitor concentrations in reaction buffer: 50 mM MOPSO pH 6.5, 10 mM MgCl2, 2 mM MnCl2, 2.5 mM DTI, 0.01% BSA, 0.1 mM Na3VO4 and 0.1 mM ATP. After about 60 min incubation at rt, the reaction was quenched by addition of EDTA (final concentration: 100 mM) and developed by addition of detection reagents (final approximate concentrations: 30 mM HEPES pH 7.0, 0.06% BSA, 0.006% Tween-20, 0.24 M KF, 80 ng/mL PT66K (europium labeled anti-phosphotyrosine antibody cat #61T66KLB Cisbio, Bedford, Mass.) and 0.6 μg/mL SAXL (Phycolink streptavidin-allophycocyanin acceptor, cat #PJ25S, Prozyme, San Leandro, Calif.). The developed reaction was incubated in the dark for about 60 min at rt, then read via a time-resolved fluorescence detector (Rubystar, BMG) using a 337 nm laser for excitation and monitoring emission wavelength at 665 nm. Within the linear range of the assay, the observed signal at 665 nm was directly related to phosphorylated product and can be used to calculate the IC50 values.
# Chain of CSF-1R (P07333 538-910): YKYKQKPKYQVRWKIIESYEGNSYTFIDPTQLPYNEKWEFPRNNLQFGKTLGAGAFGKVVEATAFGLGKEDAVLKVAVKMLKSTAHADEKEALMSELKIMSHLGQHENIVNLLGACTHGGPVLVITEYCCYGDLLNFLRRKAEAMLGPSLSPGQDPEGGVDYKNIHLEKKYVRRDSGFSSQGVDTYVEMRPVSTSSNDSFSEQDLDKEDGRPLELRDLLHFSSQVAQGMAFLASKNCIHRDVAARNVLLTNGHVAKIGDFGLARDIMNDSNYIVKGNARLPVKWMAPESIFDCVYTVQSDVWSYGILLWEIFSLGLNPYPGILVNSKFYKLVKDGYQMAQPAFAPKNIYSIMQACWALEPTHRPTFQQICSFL
row,IC50,SMILES
1,< 100 nM,"c1nc2c(Nc3cc4n(n3)CCOC4)cc(C3CCCC3)cn2n1 [Example 12, N-(6-cyclopentyl-[1,2,4]triazolo[1,5-a]pyridin-8-yl)-6,7-dihydro-4H-pyrazolo[5,1-c][1,4]oxazin-2-amine]"
2,< 100 nM,"OC1CCN(c2ccc(Nc3cc(C4CCCCC4)cn4ncnc34)nc2)CC1 [Example 13, 1-(6-((6-cyclohexyl-[1,2,4]triazolo[1,5-a]pyridin-8-yl)amino)pyridin-3-yl)piperidin-4-ol]"
3,< 100 nM,"CN1CCC(n2cc(Nc3nc(C4CCCCC4)cn4ncnc34)cn2)CC1 [Example 14, 6-cyclohexyl-N-(1-(1-methylpiperidin-4-yl)-1H-pyrazol-4-yl)-[1,2,4]triazolo[1,5-a]pyrazin-8-amine]"
4,< 100 nM,"OCCCn1cc(Nc2nc(C3CCCCC3)cn3ncnc23)cn1 [Example 15, 3-(4-((6-cyclohexyl-[1,2,4]triazolo[1,5-a]pyrazin-8-yl)amino)-1H-pyrazol-1-yl)propan-1-ol]"
5,< 100 nM,"O=C(O)[C@H]1CC[C@@H](n2cc(Nc3nc(C4CCCCC4)cn4ncnc34)cn2)CC1 [Example 16, cis-4-(4-((6-cyclohexyl-[1,2,4]triazolo[1,5-a]pyrazin-8-yl)amino)-1H-pyrazol-1-yl)cyclohexanecarboxylic acid]"
6,< 100 nM,"C[C@@H]1C[C@@H](n2cc(Nc3nc(C4CCCCC4)cn4ncnc34)cn2)C[C@H](C)N1 [Example 17, 6-cyclohexyl-N-(1-((2R,4S,6S)-2,6-dimethylpiperidin-4-yl)-1H-pyrazol-4-yl)-[1,2,4]triazolo[1,5-a]pyrazin-8-amine]"
7,< 100 nM,"CC(=O)N1CCC(n2cc(Nc3nc(C4CCCCC4)cn4ncnc34)cn2)CC1 [F.1.43, 1-(4-(4-((6-cyclohexyl-[1,2,4]triazolo[1,5-a]pyrazin-8-yl)amino)-1H-pyrazol-1-yl)piperidin-1-yl)ethanone]"
8,< 100 nM,"CNC(=O)N1CCC(n2cc(Nc3nc(C4CCCCC4)cn4ncnc34)cn2)CC1 [F.1.44, 4-(4-((6-cyclohexyl-[1,2,4]triazolo[1,5-a]pyrazin-8-yl)amino)-1H-pyrazol-1-yl)-N-methylpiperidine-1-carboxamide]"
9,< 100 nM,O[C@H]1CCC[C@H](n2cc(Nc3nc(C4CCCCC4)cn4ncnc34)cn2)C1 [G.1.1]
10,< 100 nM,O[C@@H]1CCC[C@@H](n2cc(Nc3nc(C4CCCCC4)cn4ncnc34)cn2)C1 [G.1.2]
11,< 100 nM,O[C@@H]1CCC[C@H](n2cc(Nc3nc(C4CCCCC4)cn4ncnc34)cn2)C1 [G.1.3]
